Test results: patent US20070249545A1, “DIHYDROFOLATE REDUCTASE INHIBITION BY EPIGALLOCATECHIN GALLATE COMPOUNDS” (priority 2004, published 2007)

Experiments:
S. maltophilia strain 1 = assay: Time kill assay for bactericidal and bacteriostatic effects; assay type: cell-based, Stenotrophomonas maltophilia
Protocol: A time kill assay was performed for strain 1. Glass tubes containing cation-adjusted Mueller-Hinton broth, with doubling antibiotic concentration were inoculated with 5×10^5 CFU/ml and were incubated at 37° C. for 24 h. Antibiotic concentrations were chosen to comprise three doubling dilutions above and two doubling dilutions below the broth dilution MIC. Inoculation of each serially diluted antibiotic tube was performed following NCCLS guidelines for broth dilution method. Viability counts of antibiotic-containing suspensions were carried out at 0, 3, 6, 12 and 24 h, by plating 10 μl aliquots of 10-fold dilutions from each tube in sterile saline onto Columbia agar supplemented with 5% of defibrinated sheep blood. The plates used to recover organisms were incubated for up to 24 h. The lower limit of sensibility of colony counts was 100 CFU/ml. Time kill assay results were analyzed by determining changes in the log10 CFU/ml compared to the counts at zero-time for the six different concentrations of EGCG. Bactericidal effect was defined at the lowest concentration that reduced the original inoculums by ≧3 log10 CFU/ml after a period of time and bacteriostatic if the inoculums was reduced by 0 to 3 log10 CFU/ml.

Jurkat T = assay: Growth of Jurkat T lymphoma cells; assay type: cell-based, human
Protocol: (§1) To determine whether EGCG inhibits DHFR activity in vivo, two human cancer cell, (Caco-2 from colon cancer and Jurkat T a lymphoma cell line) were incubated with various concentrations of EGCG in a standard medium.

Caco-2 = assay: Growth of Caco-2 colon cancer cells; assay type: cell-based, human
Protocol: as §1

[1] = standard medium, read-out: IC50 of cell growth

With (−)-epigallocatechin gallate [EGCG] the regrowth (S. maltophilia strain 1; 64 μg/ml, after 12 h incubation) was “Regrowth was observed”, the “concentration with bactericidal effect” value (S. maltophilia strain 1; at 12 h) was 4 times the MIC and the “concentration with bacteriostatic effect” value (S. maltophilia strain 1; at 12 h) was 2 times the MIC. For the same substance, the apoptosis (Jurkat T) was “induction of apoptosis”, the cell cycle effect (Jurkat T) was “G0/G1 phase arrest” and the “effects in HT medium and in the presence of folinic acid or thymine” value (Jurkat T) was “highly attenuated”. The IC50 (Jurkat T; [1]) was 10 µM, the apoptosis (Caco-2) was “induction of apoptosis” and the cell cycle effect (Caco-2) was “G0/G1 phase arrest”. For the same substance, the “effects in HT medium and in the presence of folinic acid or thymine” value (Caco-2) was “highly attenuated” and the IC50 (Caco-2; [1]) was 30 µM.
